Results from paper PMC10958125 (Clinical and Translational Medicine, 2024).
Like-named read-outs stand apart in the source and are kept apart here.

Tests used:
[1] = tested on: metastatic prostate cancer patients; set-up: method as in PMID 15470213; details: TAX327 trial, cited from earlier work
[2] = human, in vivo
[3] = tested on: metastatic prostate cancer patients; details: cited from earlier work
[4] = tested on: metastatic prostate cancer patients; set-up: method as in PMID 28753384; details: FIRSTANA trial, cited from earlier work
[5] = clinical; details: human, in vivo, iv, 75 mg/m2
[6] = tested on: metastatic prostate cancer patients
[7] = tested on: Insulin‐like growth factor binding protein 3 (IGFBP‐3); assay: Plasma IGFBP-3, sandwich ELISA; type: in vivo, human; details: all lycopene doses, any time point
Procedure: Insulin‐like growth factor binding protein 3 (IGFBP‐3) levels were measured in duplicate by sandwich ELISA assays using kits from eBioscience in subjects 1–12 of the dose escalation cohort.

[8] = target: IGF‐1R (Homo sapiens, UniProt P08069); assay: Ligand-dependent phosphorylation of IGF-1R(Y1131) in PBMCs stimulated ex vivo with rhIGF-1; details: patients
Description: Briefly, ligand‐dependent phosphorylation of the IGF‐1R was estimated using an ex vivo assay that utilised peripheral blood mononuclear cells (PBMCs). […] The cells were then lysed, and the quantity of phosphoIGF‐1R(Y1131) was estimated by an ELISA assay (Cell Signalling Technologies). Ligand‐dependent phosphorylation was defined as the ratio of pIGF‐1R(Y1131) in ligand‐stimulated PBMCs to the same parameter for unstimulated PBMCs. […] Thus, the changes in the level of ligand‐dependent phosphorylation over time were analysed by both parametric and non‐parametric methods.
Measurement of IGF-1R (Y1131) phosphorylation in PBMNCs after ex vivo ligand treatment. […] The primary analyte was phosphorylation of the IGF-1R on Y1131, measured by ELISA on lysates of PBMCs treated (or not) with recombinant human IGF-1.
Whole blood (10mL) is collected into an ACD (acid citrate-dextrose) Vacutainer®. Peripheral blood mononuclear cells are collected by density gradient centrifugation using LSM Lymphoprep® and an Accuspin® 50mL tube (Sigma). The mononuclear cells are collected, washed x 2 with serum-free RPMI1640 medium, then resuspended in 1mL of RPMI 1640 medium + 0.1% BSA. Cells are then aliquoted into 1mL microcentrifuge tubes, 0.5mL of cells per tube per condition.
Cells are incubated for 1-2hr at 37C, then rhIGF-1 (Peprotech) is added to 50-500ng/mL final concentration. Incubation continues for 15min at 37C.
Cells are then pelleted and washed with 1mL of cold RPMI 1640 medium (no protein).
The cell pellet is lysed with 120mcL of Cell Signalling® ELISA buffer containing phosphatase inhibitors and protease inhibitors. The lysate can be stored at -80C or assayed immediately.
For total protein measurement follow the BCA method (BioRad).
For IGF-1R(Y1131) ELISA (Cell Signalling® #7302) proceed per kit instructions. […]
The standard will be used as a series of 2-fold dilutions, being diluted with assay buffer from the ELISA kit. […] Results will be expressed as X units of pIGF-1R protein per amount of protein in the lysate. The protein is measured by the BCA method, as mcg/mL.

[9] = tested on: Vascular endothelial growth factor A (VEGF‐A); assay: Plasma VEGF-A, sandwich ELISA; type: in vivo, human
Procedure: (§1) Vascular endothelial growth factor A (VEGF‐A) was measured on Ethylenediaminetetraacetic acid plasma from subjects 1−12 of the dose escalation cohort, with a commercial sandwich ELISA kit (R&D Systems). Circulating endothelial cells (CECs) were measured with an 11‐colour flow cytometry scheme using a method adopted from a previously published protocol.[36] The definition for CECs was viable cells (alive, intact nucleus) that were positive for surface CD31 and CD34, and that were negative for haematopoietic marker CD45. Additional exploratory markers were CD105 and CD146. […] Samples were collected before the scheduled docetaxel dose for that day.
(§2) Both VEGF‐A and CEC levels were analysed using linear mixed‐effects regression models with a subject‐level random effect included to account for within‐subject correlation. Models were adjusted for the individual's baseline levels in both outcomes. All analyses and hypothesis testing were completed on the log scale and back transformed to estimate fold changes. Analysis was completed in the R environment,[37] with all tests level α = .05. The VEGF‐A levels were near‐linear over time, so time was treated as continuous, and slopes between groups were compared using Wald tests. Levels of CECs were non‐linear over time; therefore, time was treated as a fixed factor in the CEC model, with a time‐by‐dose interaction effect. Pairwise tests of differences between the CEC model‐based estimated means at each time point after zero were completed using the emmeans package.[38] As these analyses are exploratory/hypothesis generating, no multiple comparison adjustments have been made. Simple Bonferroni adjustments would lead to p‐value cutoffs of .01 (five comparisons) and .0033 (15 comparisons) for the VEGF‐A and CEC analyses, respectively.

[10] = Plasma lycopene levels (HPLC); type: in vivo, human
[11] = tested on: Circulating endothelial cells (CECs); assay: Circulating endothelial cells, flow cytometry; type: in vivo, human
Procedure: as §1, §2

[12] = tested on: metastatic prostate cancer patients; type: in vivo; details: lycopene alone for 2 weeks from day 1, dose escalation cohort

Chain of IGF‐1R (P08069 31-1367): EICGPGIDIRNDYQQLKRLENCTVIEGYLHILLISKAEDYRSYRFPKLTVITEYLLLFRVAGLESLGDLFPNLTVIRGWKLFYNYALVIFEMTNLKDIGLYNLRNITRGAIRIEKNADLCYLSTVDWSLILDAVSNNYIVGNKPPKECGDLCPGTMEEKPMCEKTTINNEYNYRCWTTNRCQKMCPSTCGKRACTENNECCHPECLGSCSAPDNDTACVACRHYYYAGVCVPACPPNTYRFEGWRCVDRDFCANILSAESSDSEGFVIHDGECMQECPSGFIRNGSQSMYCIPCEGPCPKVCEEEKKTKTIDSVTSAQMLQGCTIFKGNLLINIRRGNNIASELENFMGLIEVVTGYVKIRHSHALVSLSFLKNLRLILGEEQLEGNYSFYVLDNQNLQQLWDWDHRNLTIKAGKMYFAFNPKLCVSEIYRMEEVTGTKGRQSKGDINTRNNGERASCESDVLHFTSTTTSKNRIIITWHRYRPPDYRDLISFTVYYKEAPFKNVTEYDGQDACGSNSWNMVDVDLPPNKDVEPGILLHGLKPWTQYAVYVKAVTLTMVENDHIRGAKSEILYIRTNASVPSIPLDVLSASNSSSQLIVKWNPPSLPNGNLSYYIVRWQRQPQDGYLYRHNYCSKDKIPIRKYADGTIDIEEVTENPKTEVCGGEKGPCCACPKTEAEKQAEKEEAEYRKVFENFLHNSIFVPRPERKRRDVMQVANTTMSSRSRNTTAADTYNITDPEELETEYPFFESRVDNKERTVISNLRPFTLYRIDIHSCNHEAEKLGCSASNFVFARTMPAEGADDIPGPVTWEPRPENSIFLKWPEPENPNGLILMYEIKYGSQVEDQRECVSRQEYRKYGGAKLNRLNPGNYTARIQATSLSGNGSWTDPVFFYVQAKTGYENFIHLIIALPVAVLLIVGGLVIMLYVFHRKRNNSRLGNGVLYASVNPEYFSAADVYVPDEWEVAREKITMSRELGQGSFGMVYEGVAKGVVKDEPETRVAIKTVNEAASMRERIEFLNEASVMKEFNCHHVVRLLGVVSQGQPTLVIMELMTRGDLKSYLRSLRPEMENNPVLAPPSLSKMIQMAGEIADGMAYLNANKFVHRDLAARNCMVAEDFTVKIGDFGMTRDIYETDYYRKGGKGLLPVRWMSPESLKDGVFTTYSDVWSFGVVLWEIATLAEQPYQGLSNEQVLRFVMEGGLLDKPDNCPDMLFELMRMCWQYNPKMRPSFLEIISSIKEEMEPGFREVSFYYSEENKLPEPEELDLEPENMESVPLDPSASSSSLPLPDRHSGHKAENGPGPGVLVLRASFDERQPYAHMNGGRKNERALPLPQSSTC

## CC(=O)O[C@@]12CO[C@@H]1C[C@H](O)[C@@]1(C)C(=O)[C@H](O)C3=C(C)[C@@H](OC(=O)[C@H](O)[C@@H](NC(=O)OC(C)(C)C)c4ccccc4)C[C@@](O)([C@@H](OC(=O)c4ccccc4)[C@H]21)C3(C)C [docetaxel]
[1]; any grade
  Alopecia, % any: 65.1%
  Anaemia, % any: 66.5%
  Anorexia, % any: 16.6%
  Arthralgia, % any: 8.1%
  Cough, % any: 12.3%
  Diarrhoea, % any: 31.6%
  Dysgeusia, % any: 18.4%
  Dyspnoea, % any: 15.1%
  Fatigue, % any: 53.3%
  Febrile neutropenia, % any: 2.7%
  Infection, % any: 32.2%
  Nail changes, % any: 29.5%
  Nausea, % any: 41%
  Neutropenia, % any: 40.9%
  Peripheral oedema, % any: 18.1%
  Rash/desquamation, % any: 6%
  Sensory/motor neuropathy, % any: 30.4%
  Stomatitis/pharyngitis, % any: 19.6%
  Tearing, % any: 9.9%
  Thrombocytopenia, % any: 3.4%
  Vomiting, % any: 16.9%
[1]
  Anaemia, % grade 3+: 4.9%
  Anorexia, % grade 3+: 1.2%
  Arthralgia, % grade 3+: .6%
  Cough, % grade 3+: 0%
  Diarrhoea, % grade 3+: 2.1%
  Dysgeusia, % grade 3+: 0%
  Dyspnoea, % grade 3+: 2.7%
  Fatigue, % grade 3+: 4.5%
  Febrile neutropenia, % grade 3+: 2.7%
  Infection, % grade 3+: 5.7%
  Nausea, % grade 3+: 2.7%
  Neutropenia, % grade 3+: 32%
  Peripheral oedema, % grade 3+: .3%
  Sensory/motor neuropathy, % grade 3+: 1.8%
  Stomatitis/pharyngitis, % grade 3+: .9%
  Tearing, % grade 3+: .6%
  Thrombocytopenia, % grade 3+: .6%
  Vomiting, % grade 3+: 1.5%
[2]
  Plasma docetaxel C max, geometric mean: 2810 ng/mL
[2]; iv, 75 mg/m2
  Plasma docetaxel AUClast, geometric mean: 2810 ng·h/mL
[3]; mCRPC
  Increased overall survival: 2.4 months
[3]; mCSPC
  Increased overall survival: 16.8 months
[4]; any grade
  Alopecia, % any: 39%
  Anaemia, % any: 99.5%
  Anorexia, % any: 17.1%
  Arthralgia, % any: 8%
  Constipation, % any: 18.1%
  Cough, % any: 9.8%
  Diarrhoea, % any: 37%
  Dysgeusia, % any: 18.1%
  Dyspnoea, % any: 9.6%
  Fatigue, % any: 28.9%
  Febrile neutropenia, % any: 8.3%
  Infection, % any: 7.2%
  Nail changes, % any: 9%
  Nausea, % any: 22.7%
  Neutropenia, % any: 89%
  Pain in extremity, % any: 9.8%
  Peripheral oedema, % any: 20.4%
  Rash/desquamation, % any: 5.9%
  Sensory/motor neuropathy, % any: 25.1%
  Stomatitis/pharyngitis, % any: 13.7%
  Tearing, % any: 9.6%
  Thrombocytopenia, % any: 32.6%
  Vomiting, % any: 11.6%
[4]
  Anaemia, % grade 3+: 5.5%
  Anorexia, % grade 3+: .3%
  Arthralgia, % grade 3+: 1%
  Constipation, % grade 3+: 1%
  Cough, % grade 3+: 0%
  Diarrhoea, % grade 3+: 2.3%
  Dysgeusia, % grade 3+: 0%
  Dyspnoea, % grade 3+: .3%
  Fatigue, % grade 3+: .3%
  Febrile neutropenia, % grade 3+: 8.3%
  Infection, % grade 3+: 4.1%
  Nausea, % grade 3+: .8%
  Neutropenia, % grade 3+: 78.9%
  Pain in extremity, % grade 3+: 1%
  Peripheral oedema, % grade 3+: 1.6%
  Sensory/motor neuropathy, % grade 3+: 2.1%
  Stomatitis/pharyngitis, % grade 3+: .8%
  Tearing, % grade 3+: 0%
  Thrombocytopenia, % grade 3+: 1.6%
  Vomiting, % grade 3+: .8%
[5]
  AUC(0-inf): 3020 ng·h/mL

## CC(C)=CCC/C(C)=C/C=C/C(C)=C/C=C/C(C)=C/C=C/C=C(C)/C=C/C=C(C)/C=C/C=C(\C)CCC=C(C)C [lycopene]
[6]; in combination with docetaxel 75 mg/m^2 and ADT
  Maximum tolerated dose (MTD) of synthetic lycopene: 150 mg/day
[6]; in vivo
  Dose-limiting toxicity: No DLT
[6]; male, human, in vivo
  Probability of toxicity, dose level 1: 0
  Probability of toxicity, dose level 2: .009
  Probability of toxicity, dose level 3: .106
[7]
  Change of plasma IGFBP-3 from pretreatment level: no statistically significant differences
[8]; 150 mg lycopene daily, day 78, p = .048
  Change of ligand-dependent phosphorylation of IGF1-R(Y1131): borderline decrease
[8]; 150 mg lycopene daily, day 99, p = .027
  Change of ligand-dependent phosphorylation of IGF1-R(Y1131): significant decrease
[8]; 30 or 90 mg/day lycopene, day 15 to 99
  Change of ligand-dependent phosphorylation of IGF1-R(Y1131): did not show a consistent change
[9]; lycopene 30 mg/day + docetaxel/ADT
  Change of plasma VEGF-A level over time: tended to decrease
[9]; lycopene 90 mg/day + docetaxel/ADT
  Change of plasma VEGF-A level over time: little change
[9]; lycopene 150 mg/day + docetaxel/ADT
  Change of plasma VEGF-A level over time: to increase
[10]; 30 mg daily synthetic lycopene with docetaxel
  Increase of plasma lycopene concentration from baseline: approximately 1.6 fold
[10]; Figure 2B
  Peak concentration of lycopene in plasma at 150 mg/day compared to 30 and 90 mg/day: did not further increase the peak concentration
[10]; after 99 days of treatment
  Mean lycopene concentration in plasma: .82 ± .49 µmol/L
[10]; baseline
  Mean lycopene concentration in plasma: .48 ± .37 µmol/L
[10]; baseline to 99 days
  Increase of plasma lycopene during treatment: 93.4%
[11]; lycopene 30 mg/day + docetaxel/ADT, all time points
  Change of CEC number vs pre-treatment: decreased
[11]; lycopene 90 mg daily + docetaxel/ADT
  Change of CEC number vs pre-treatment: increased CEC levels at all time points
[11]; lycopene 150 mg daily + docetaxel/ADT
  Change of CEC number vs pre-treatment: significant increase in CECs only on day 57
[12]
  Adverse events during lycopene alone lead-in: No participant reported any adverse event
